Here are results for five compounds from patent publication US20260365670A1, “EGFR INHIBITORS AND USES THEREOF” (DIZAL (JIANGSU) PHARMACEUTICAL CO., LTD., priority 2022, published 2026).

For test [1], the target named is T1, EGFR (d746-750 C797S) (Homo sapiens, UniProt P00533, C797S/DEL746-750).
T1 construct: purchased signalchem
The experiment in a line: Inhibition of EGFR (d746-750 C797S) biochemical enzymatic activity (HTRF). Conditions: EGFR Del19-C797S, 1 mM ATP, 1 h, room temperature, read-out: IC50 (nM) @Del19-C797S. An outline of the steps:
(§1)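 Compounds at varying concentrations were tested against each EGFR form using 1 mM ATP and 1 μM TK Substrate-biotin. Reactions ran 1 h at room temperature in Mg2+/Mn2+ buffer with CHAPS, DTT and 0.5% DMSO. Time-resolved fluorescence gave IC50 by four-parameter fit.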
For orientation: TR-FRET usually uses a lanthanide donor and a delayed reading to cut background.

Test [2] deals with T2, EGFR L858R/T790M (Homo sapiens, UniProt P00533, L858R/T790M).
T2 construct: purchased Carna Bio
The test is described as follows: Inhibition of EGFR L858R/T790M biochemical enzymatic activity (HTRF). The note with it: EGFR L858R-T790M, 1 mM ATP, 1 h, room temperature, read-out: IC50 (nM) @L858R-T790M. An outline of the steps:
as §1

Test [3] relates to A-431. The test is described as follows: Cell proliferation GI50, A-431 cells (Table 6). The format is cell-based.
The target of test [4] is T3, EGFR L858R (Homo sapiens, UniProt P00533, L858R).
T3 construct: purchased Carna Bio
The experiment in a line: Inhibition of EGFR L858R biochemical enzymatic activity (HTRF). Conditions: 1 mM ATP, 1 h, room temperature, read-out: IC50 (nM) @L858R. An outline of the steps: as §1

For test [5], the system named is Ba/F3 cells expressing EGFR mutations. The test is described as follows: Cell proliferation assay, Ba/F3 cells expressing EGFR mutations (CellTiter-Glo, 72 hours). It counts as cell-based. Conditions: CellTiter-Glo. In a few lines:
(§2)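 GI50 is the concentration giving 50% proliferation inhibition. Growth for this was normalised to a baseline viability reading taken when compound was added, and to DMSO wells. PC-9 (500 cells/well) and mutant-EGFR Ba/F3 (5000 cells/well) are treated after overnight seeding in RPMI1640-based medium.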
On the technique in general: Cellular ATP, detected with luciferase, serves as a proxy for viable cell number.

In test [6] the target is T4, EGFR[T790M/C797S/d746-750] (Homo sapiens, UniProt P00533, C797S/DEL746-750/T790M).
T4 construct: purchased Carna Bio
The test is described as follows: Inhibition of EGFR[T790M/C797S/d746-750] biochemical enzymatic activity (HTRF). The note with it: EGFR T790M-C797S-Del19, 1 mM ATP, 1 h, room temperature, read-out: IC50 (nM) @T790M - C797S - Del19. An outline of the steps: as §1

Test [7] has as its target T5, EGFR Exon19Del/T790M (Homo sapiens, UniProt P00533, DEL746-750/T790M).
T5 construct: purchased Carna Bio
The test is described as follows: Inhibition of EGFR Exon19Del/T790M biochemical enzymatic activity (HTRF). Conditions: EGFR Del19-T790M, 1 mM ATP, 1 h, room temperature, read-out: IC50 (nM) @Del19-T790M. In a few lines:
as §1

In test [8] the target is T6, EGFR wild type (Homo sapiens, UniProt P00533).
T6 construct: purchased Carna Bio
The test is described as follows: Inhibition of EGFR wild type biochemical enzymatic activity (HTRF). Conditions: EGFR WT, 1 mM ATP, 1 h, room temperature, read-out: IC50 (nM) @WT. In a few lines: as §1

Test [9] concerns the target T7, EGFR[T790M/C797S/L858R] (Homo sapiens, UniProt P00533, C797S/L858R/T790M).
T7 construct: purchased Carna Bio
The experiment in a line: Inhibition of EGFR[T790M/C797S/L858R] biochemical enzymatic activity (HTRF). The note with it: EGFR T790M-C797S-L858R, 1 mM ATP, 1 h, room temperature, read-out: IC50 (nM) @T790M- C797S - L858R. An outline of the steps: as §1

Test [10] has as its target T8, EGFR Exon19Del (Homo sapiens, UniProt P00533, DEL746-750).
T8 construct: purchased Carna Bio
The experiment in a line: Inhibition of EGFR Exon19Del biochemical enzymatic activity (HTRF). The note with it: EGFR Del19, 1 mM ATP, 1 h, room temperature, read-out: IC50 @Del19. In a few lines: as §1

In test [11] the target is T9, EGFR (C797S L858R) (Homo sapiens, UniProt P00533, C797S/L858R).
T9 construct: purchased signalchem
The experiment in a line: Inhibition of EGFR (C797S L858R) biochemical enzymatic activity (HTRF). Conditions: EGFR L858-C797S, 1 mM ATP, 1 h, room temperature, read-out: IC50 (nM) @L858-C797S. In a few lines:
as §1

Test [12] concerns PC-9. The experiment in a line: Cell proliferation assay, PC-9 cells (CellTiter-Glo, 72 hours). The format is cell-based. The note with it: PC9 cells, CellTiter-Glo, read-out: PC9 GI50. An outline of the steps:
as §2

Setting [13] is: Homo sapiens, A-431, A-431 cells.
Where [14] appears, read: Mus musculus, BaF3, 72 h, BaF3 cells, EGFR DEL19-C797S, read-out: DEL19-C797S/BaF3 GI50.
Setting [15] is: Mus musculus, BaF3, 72 h, BaF3 cells, EGFR DEL19-T790-C797S, read-out: DEL19-T790-C797S/BaF3 GI50.
Setting [16] is: Mus musculus, BaF3, 72 h, BaF3 cells, EGFR L858R, read-out: L858R/BaF3 GI50.
Setting [17] is: Mus musculus, BaF3, 72 h, BaF3 cells, EGFR L858R-C797S, read-out: L858R-C797S/BaF3 GI50.
[18] abbreviates: Mus musculus, BaF3, 72 h, BaF3 cells, EGFR L858R-T790-C797S, read-out: L858R-T790-C797S/BaF3 GI50.
The mark [19] stands for this setting: Mus musculus, BaF3, 72 h, BaF3 cells, EGFR L858R-T790M, read-out: L858R-T790M/BaF3 GI50.
Setting [20] is: Mus musculus, BaF3, 72 h, EGFR DEL19-T790M, read-out: DEL19-T790M GI50.

The structures appear in SMILES notation. Like-named read-outs stand apart in the source and are kept apart here.

As a reminder, the IC50 is the concentration that inhibits the measured activity by half.

T4 sequence (P00533 with tags, fused parts or gaps DEL746-750/T790M/C797S limits assumed): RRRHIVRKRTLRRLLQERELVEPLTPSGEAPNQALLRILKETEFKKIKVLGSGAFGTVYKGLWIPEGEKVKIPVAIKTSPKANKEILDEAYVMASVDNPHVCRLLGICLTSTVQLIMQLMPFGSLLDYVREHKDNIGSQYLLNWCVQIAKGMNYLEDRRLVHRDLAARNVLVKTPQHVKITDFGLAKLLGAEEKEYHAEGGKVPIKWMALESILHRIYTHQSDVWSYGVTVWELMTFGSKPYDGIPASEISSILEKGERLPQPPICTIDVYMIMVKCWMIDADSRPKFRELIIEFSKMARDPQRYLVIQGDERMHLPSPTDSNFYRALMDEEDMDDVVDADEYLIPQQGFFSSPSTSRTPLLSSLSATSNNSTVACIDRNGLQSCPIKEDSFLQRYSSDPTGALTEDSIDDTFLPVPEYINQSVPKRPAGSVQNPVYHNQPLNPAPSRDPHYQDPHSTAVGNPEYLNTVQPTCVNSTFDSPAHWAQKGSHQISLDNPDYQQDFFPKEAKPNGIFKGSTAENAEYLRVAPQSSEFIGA
T2 sequence (P00533 25-1210 T790M/L858R): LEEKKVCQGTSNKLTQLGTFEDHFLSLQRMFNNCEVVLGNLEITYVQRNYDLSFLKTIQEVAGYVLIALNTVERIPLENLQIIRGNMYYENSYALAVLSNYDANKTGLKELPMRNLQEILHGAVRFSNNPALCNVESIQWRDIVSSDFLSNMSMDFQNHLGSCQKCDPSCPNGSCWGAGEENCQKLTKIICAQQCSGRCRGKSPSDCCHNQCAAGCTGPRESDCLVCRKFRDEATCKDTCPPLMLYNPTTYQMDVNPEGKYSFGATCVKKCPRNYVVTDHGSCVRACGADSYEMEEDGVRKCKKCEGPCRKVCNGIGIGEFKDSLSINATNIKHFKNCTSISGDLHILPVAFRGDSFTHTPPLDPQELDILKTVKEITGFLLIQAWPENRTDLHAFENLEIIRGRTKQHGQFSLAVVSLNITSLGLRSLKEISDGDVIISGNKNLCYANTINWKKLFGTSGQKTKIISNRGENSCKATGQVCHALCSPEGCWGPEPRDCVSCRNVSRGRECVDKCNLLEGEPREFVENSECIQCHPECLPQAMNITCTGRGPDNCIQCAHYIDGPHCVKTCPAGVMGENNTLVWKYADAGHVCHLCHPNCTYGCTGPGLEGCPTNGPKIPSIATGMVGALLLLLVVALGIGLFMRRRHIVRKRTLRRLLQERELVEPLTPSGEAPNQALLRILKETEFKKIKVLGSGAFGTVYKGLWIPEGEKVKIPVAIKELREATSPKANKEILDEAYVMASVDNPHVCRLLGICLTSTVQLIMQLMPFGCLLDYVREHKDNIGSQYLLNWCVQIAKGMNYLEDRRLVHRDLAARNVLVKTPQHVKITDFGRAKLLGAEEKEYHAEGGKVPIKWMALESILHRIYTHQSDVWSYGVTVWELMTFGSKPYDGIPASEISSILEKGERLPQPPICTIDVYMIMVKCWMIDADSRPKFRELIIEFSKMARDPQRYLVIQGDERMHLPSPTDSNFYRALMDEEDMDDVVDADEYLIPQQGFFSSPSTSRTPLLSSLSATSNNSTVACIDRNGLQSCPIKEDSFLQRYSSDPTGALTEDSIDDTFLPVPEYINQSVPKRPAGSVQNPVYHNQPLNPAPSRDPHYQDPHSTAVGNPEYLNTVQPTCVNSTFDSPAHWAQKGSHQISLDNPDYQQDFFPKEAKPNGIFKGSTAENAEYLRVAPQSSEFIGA
T8 sequence (P00533 with tags, fused parts or gaps DEL746-750 limits assumed): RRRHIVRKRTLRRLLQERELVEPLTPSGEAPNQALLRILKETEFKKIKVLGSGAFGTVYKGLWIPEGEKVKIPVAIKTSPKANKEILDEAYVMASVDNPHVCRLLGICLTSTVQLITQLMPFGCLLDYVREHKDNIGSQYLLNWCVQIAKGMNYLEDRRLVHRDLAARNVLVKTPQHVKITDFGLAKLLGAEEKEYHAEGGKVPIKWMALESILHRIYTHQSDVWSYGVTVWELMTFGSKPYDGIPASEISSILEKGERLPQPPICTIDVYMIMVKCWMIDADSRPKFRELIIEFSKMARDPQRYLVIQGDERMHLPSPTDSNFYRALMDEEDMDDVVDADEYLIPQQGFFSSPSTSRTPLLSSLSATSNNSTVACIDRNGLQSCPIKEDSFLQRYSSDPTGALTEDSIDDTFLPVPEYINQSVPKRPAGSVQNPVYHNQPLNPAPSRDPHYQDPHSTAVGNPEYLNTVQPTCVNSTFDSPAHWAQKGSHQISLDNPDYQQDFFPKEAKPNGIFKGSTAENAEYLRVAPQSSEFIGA
T6 sequence (P00533 25-1210): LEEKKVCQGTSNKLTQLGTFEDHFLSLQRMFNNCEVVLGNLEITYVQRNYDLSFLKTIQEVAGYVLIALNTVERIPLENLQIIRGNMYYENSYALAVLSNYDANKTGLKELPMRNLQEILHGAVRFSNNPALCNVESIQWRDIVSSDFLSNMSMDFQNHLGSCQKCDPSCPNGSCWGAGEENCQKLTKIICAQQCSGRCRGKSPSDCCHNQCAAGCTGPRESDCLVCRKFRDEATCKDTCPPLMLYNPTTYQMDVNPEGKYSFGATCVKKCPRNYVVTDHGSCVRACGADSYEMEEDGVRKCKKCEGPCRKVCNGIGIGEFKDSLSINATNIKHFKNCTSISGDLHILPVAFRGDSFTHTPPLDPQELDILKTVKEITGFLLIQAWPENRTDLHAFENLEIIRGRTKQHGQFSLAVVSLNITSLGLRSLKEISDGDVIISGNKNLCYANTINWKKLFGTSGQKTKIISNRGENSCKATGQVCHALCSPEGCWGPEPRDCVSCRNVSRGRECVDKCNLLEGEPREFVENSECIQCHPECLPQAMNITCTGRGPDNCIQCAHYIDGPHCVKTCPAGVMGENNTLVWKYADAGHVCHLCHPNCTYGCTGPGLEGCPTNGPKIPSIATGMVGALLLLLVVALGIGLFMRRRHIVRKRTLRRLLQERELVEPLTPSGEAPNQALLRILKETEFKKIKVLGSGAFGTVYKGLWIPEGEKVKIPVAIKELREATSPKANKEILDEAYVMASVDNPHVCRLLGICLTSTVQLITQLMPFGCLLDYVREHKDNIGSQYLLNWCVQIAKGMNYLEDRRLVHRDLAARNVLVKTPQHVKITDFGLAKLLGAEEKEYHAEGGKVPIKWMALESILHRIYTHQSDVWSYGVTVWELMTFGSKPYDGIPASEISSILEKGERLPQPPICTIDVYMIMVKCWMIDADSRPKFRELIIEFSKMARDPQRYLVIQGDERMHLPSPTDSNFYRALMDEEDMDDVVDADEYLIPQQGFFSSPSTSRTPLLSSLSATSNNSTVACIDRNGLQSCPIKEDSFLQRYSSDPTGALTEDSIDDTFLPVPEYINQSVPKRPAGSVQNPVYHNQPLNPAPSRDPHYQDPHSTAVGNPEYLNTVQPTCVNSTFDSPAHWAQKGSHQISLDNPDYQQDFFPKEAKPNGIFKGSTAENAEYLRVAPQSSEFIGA
T1 sequence (P00533 with tags, fused parts or gaps DEL746-750/C797S limits assumed): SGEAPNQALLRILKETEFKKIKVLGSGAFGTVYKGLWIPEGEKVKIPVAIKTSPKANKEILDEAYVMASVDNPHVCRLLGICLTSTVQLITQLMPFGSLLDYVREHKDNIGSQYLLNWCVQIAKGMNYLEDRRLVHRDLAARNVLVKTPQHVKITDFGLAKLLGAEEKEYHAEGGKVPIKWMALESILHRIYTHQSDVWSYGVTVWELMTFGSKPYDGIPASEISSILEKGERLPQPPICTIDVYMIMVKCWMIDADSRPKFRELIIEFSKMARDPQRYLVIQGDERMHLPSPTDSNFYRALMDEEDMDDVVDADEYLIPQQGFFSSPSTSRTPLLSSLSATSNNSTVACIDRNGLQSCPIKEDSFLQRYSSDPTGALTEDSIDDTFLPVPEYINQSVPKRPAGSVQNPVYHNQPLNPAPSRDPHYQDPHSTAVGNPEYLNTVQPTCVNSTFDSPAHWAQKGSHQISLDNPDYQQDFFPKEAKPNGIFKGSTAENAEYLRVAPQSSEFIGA
T5 sequence (P00533 with tags, fused parts or gaps DEL746-750/T790M limits assumed): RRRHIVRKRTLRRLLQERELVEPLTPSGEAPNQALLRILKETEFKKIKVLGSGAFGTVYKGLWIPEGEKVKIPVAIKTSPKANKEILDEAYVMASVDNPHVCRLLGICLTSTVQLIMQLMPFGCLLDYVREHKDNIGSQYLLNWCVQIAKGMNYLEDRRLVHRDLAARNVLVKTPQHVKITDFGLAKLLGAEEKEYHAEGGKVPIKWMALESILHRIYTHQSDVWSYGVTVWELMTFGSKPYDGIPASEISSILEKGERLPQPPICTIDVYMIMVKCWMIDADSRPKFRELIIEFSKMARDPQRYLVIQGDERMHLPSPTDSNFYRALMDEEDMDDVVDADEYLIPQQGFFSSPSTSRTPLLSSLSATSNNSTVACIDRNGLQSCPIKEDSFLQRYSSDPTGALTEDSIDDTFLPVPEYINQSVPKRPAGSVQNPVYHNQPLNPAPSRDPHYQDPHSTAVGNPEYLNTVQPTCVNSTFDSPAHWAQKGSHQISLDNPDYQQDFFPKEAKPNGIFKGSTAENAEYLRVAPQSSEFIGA

Turning to `C[C@@H]1CCCOc2c(cnn2C)-c2cc(cn(C)c2=O)C(=O)Nc2nc3ccc(N4CC5(CCN(C)CC5(F)F)C4)cc3n2C1` [Example A56], the IC50 in test [1] was 5.5 nM; in test [2], 32 nM; in test [4] it was 35 nM; in test [6] it was 16 nM; in test [7], 17 nM; in [8], 501 nM. For the same compound, the results for the IC50 in [9], in [10] and in test [11] were 19 nM, 9.1 nM and 22 nM, respectively. The GI50 in [3] (setting [13]) was 436 nM; in test [5] (setting [14]), 3.4 nM; in test [5] (setting [15]), 11 nM; in [5] (setting [16]), 12 nM; in [5] (setting [17]), 12 nM; in test [5] (setting [18]), 10 nM. The GI50 in test [5] (setting [19]) was found to be 26 nM; in test [5] (setting [20]), 17 nM; in test [12] (Homo sapiens, PC-9, 72 h) it was 52 nM.
For `Cn1ncc2c1OCCN1CC3CCC(CC3)(C1)n1c(nc3ccccc31)NC(=O)c1cc-2c(=O)n(C)c1` [Example A100, 15,21-Dimethyl-23-oxa-2,9,11,15,20,21,26-heptaazaheptacyclo[26.2.2.1^{1,26}.1^{13,17}.0^{2,10}.0^{3,8}.0^{18,22}]tetratriaconta-3,5,7,9,13,17(34),18(22),19-octaene-12,16-dione], the IC50 is 120 nM in test [1]; 3520 nM in test [2]; 2500 nM in [4]; 26 nM in test [6]; 25 nM in test [7]; above 5000 nM in test [8]. Also, the IC50 in [9] came out at 2950 nM; in [10], 97 nM; in [11], 1760 nM. The GI50 in test [3] (setting [13]) came to 6000 nM; in [5] (setting [14]) it was 27 nM; in test [5] (setting [15]) it was 56 nM; in [5] (setting [16]), 142 nM; in test [5] (setting [17]), 160 nM; in test [5] (setting [18]), 129 nM. The GI50 amounted to 535 nM in test [5] (setting [19]); 78 nM in [5] (setting [20]); 144 nM in [12] (Homo sapiens, PC-9, 72 h).
On to `Cn1ncc2c1OCCN1CC3CCC(C3)(C1)n1c(nc3ccccc31)NC(=O)c1cc-2c(=O)n(C)c1` (stereo not drawn) [Example A61B, 15,21-Dimethyl-23-oxa-2,9,11,15,20,21,26-heptaazaheptacyclo[24.4.1.1^{1,28}.1^{13,17}.0^{2,10}.0^{3,8}.0^{18,22}]tritriaconta-3,5,7,9,13,17(33),18(22),19-octaene-12,16-dione], for which the IC50 in test [1] came to 2.5 nM; in [2] it was 8 nM; in test [4] it was 224 nM; in test [6] it was 1.7 nM; in [7] it was 1.8 nM; in test [8], 2420 nM. For the same compound, the results for the IC50 in test [9], in [10] and in test [11] were 17 nM, 6.1 nM and 146 nM, respectively. The GI50 is 1790 nM in test [3] (setting [13]); 1.7 nM in [5] (setting [14]); 11 nM in test [5] (setting [15]); 21 nM in test [5] (setting [16]); 22 nM in test [5] (setting [17]); 16 nM in test [5] (setting [18]). Also, the GI50 in [5] (setting [19]) was 55 nM; in test [5] (setting [20]) it was 9.9 nM; in [12] (Homo sapiens, PC-9, 72 h) it was 29 nM.
For `Cn1ncc2c1OCCN1CC3CCC(C3)(C1)n1c(nc3ccc(N4CCC(N5CC(F)C5)C4)cc31)NC(=O)c1cc-2c(=O)n(C)c1` (single isomer, unassigned) [Example A94A, 5-[3-(3-Fluoroazetidin-1-yl)pyrrolidin-1-yl]-15,21-dimethyl-23-oxa-2,9,11,15,20,21,26-heptaazaheptacyclo[24.4.1.1^{1,28}.1^{13,17}.0^{2,10}.0^{3,8}.0^{18,22}]tritriaconta-3,5,7,9,13,17(33),18(22),19-octaene-12,16-dione], the IC50 in test [1] is 1560 nM; in test [2], above 5000 nM; in test [4], 4740 nM; in test [6], above 5000 nM; in test [7] it was above 5000 nM; in test [8] it was above 5000 nM. For the same compound, the IC50 was above 5000 nM in [9], 830 nM in test [10] and above 5000 nM in test [11]. For the same compound, the GI50 came to 1660 nM in test [3] (A-431 cells); 114 nM in test [5] (BaF3 cells, EGFR DEL19-C797S, read-out: DEL19-C797S/BaF3 GI50); 254 nM in [5] (BaF3 cells, EGFR DEL19-T790-C797S, read-out: DEL19-T790-C797S/BaF3 GI50); 323 nM in test [5] (BaF3 cells, EGFR L858R, read-out: L858R/BaF3 GI50); 284 nM in [5] (BaF3 cells, EGFR L858R-C797S, read-out: L858R-C797S/BaF3 GI50); 539 nM in [5] (BaF3 cells, EGFR L858R-T790-C797S, read-out: L858R-T790-C797S/BaF3 GI50). The GI50 in test [5] (BaF3 cells, EGFR L858R-T790M, read-out: L858R-T790M/BaF3 GI50) is 944 nM; in test [5] (EGFR DEL19-T790M, read-out: DEL19-T790M GI50), 209 nM; in [12] it was 981 nM.
Regarding `Cn1ncc2c1OCCN1CCCCC(C1)n1c(nc3ccccc31)NC(=O)c1cc-2c(=O)n(C)c1` (stereo not drawn) [Example A8, 15,21-Dimethyl-23-oxa-2,9,11,15,20,21,26-heptaazahexacyclo[24.4.1.1^{13,17}.0^{2,10}.0^{3,8}.0^{18,22}]dotriaconta-3,5,7,9,13,17(32),18(22),19-octaene-12,16-dione], the IC50 in test [1] is 256 nM; in test [2] it was above 5000 nM; in [4], above 5000 nM; in test [6], 226 nM; in test [7], 290 nM; in [8], above 5000 nM. Further, the IC50 in test [9] is above 5000 nM; in test [10], 368 nM; in test [11], 3550 nM. The GI50 in test [3] (setting [13]) worked out at 3880 nM; in test [5] (setting [14]), 93 nM; in test [5] (setting [15]), 401 nM; in [5] (setting [16]), 180 nM; in test [5] (setting [17]) it was 332 nM; in test [5] (setting [18]), 214 nM. Besides, the GI50 was 977 nM in test [5] (setting [19]); 256 nM in test [5] (setting [20]); 180 nM in [12] (Homo sapiens, PC-9, 72 h).
